In brackets after ≈: the same amount, converted by molar mass.
Tests used:
S. aureus = settings: as reported in the literature; cited from earlier work
[1] = Thermogravimetric analysis, thermal stability; type: physicochemical; settings: TG curve
Protocol: The amount of RFX loaded in DAMO/SBA is carefully determined by comparing the thermogravimetric (TG) traces of RFX/SBA and its parent material (DAMO-SBA), after normalizing the weight losses of the two curves at 100° C. (i.e., the temperature at which physisorbed water should be completely evaporated) (FIGS. 4A-4B). The comparison is done at 750° C., after most organic groups are removed from the samples. […] The decomposition profiles for pure RFX and copper(II) acetate, which is the salt used to immobilize Cu(II) ions into the material. As expected, RFX completely decomposes after 500° C. as it comprises mostly organic groups.

Row | SMILES | Minimum inhibitory concentrations (MICs) (S. aureus) [µg/mL] | onset temperature of degradation [1] [°C]
1 | CC[C@H]1OC(=O)[C@H](C)[C@@H](O[C@H]2C[C@@](C)(OC)[C@@H](O)[C@H](C)O2)[C@H](C)[C@@H](O[C@@H]2O[C@H](C)C[C@H](N(C)C)[C@H]2O)[C@](C)(O)C[C@@H](C)C(=O)[C@H](C)[C@@H](O)[C@]1(C)O [ERM, erythromycin] | 32 (≈ 43.6 µM) | 
2 | O=C(Nc1ccc(Oc2ccc(Cl)cc2)c(Cl)c1)c1cc(I)cc(I)c1O [RFX, N-[3-Chloro-4-(4-chlorophenoxy)phenyl]-2-hydroxy-3,5-diiodobenzamide] |  | 200
3 | COc1cc(Cc2cnc(N)nc2N)cc(OC)c1OC [TRM, trimethoprim] | 0.19 (≈ 0.654 µM) | 
